{"source": "patent US20120108636A1", "about": "“Allosteric Enhancers of th A1 Adenosine Receptor” (King Pharmaceuticals Research and Development, Inc., priority 2008, published 2012)", "data": [{"units": {"melting point": "°C"}, "values": [{"smiles": "CN(Cc1c(-c2ccccc2)sc(N)c1C(=O)c1ccc(Cl)cc1)c1ccc(Cl)c(Cl)c1", "note": "[Example 16-11, {2-Amino-4-[((3,4-dichlorophenyl)(methyl)amino)methyl]-5-phenylthiophen-3-yl}(4-chlorophenyl)methanone]", "melting point": "80 to 84"}, {"smiles": "Nc1sc(-c2ccccc2)c(CN(C2CCCC2)C2CCCC2)c1C(=O)c1ccc(Cl)cc1", "note": "[Example 16-4, {2-Amino-4-[(dicyclopentylamino)methyl]-5-phenylthiophen-3-yl}(4-chlorophenyl)methanone]", "melting point": "135 to 141"}, {"smiles": "N#Cc1ccc(-c2sc(N)c(C(=O)c3ccc(Cl)cc3)c2CN(C2CCCCC2)C2CCCCC2)cc1", "note": "[Example 10, {2-Amino-5-(4-cyanophenyl)-4-[(dicyclohexylamino)methyl]thiophen-3-yl}(4-chlorophenyl)methanone]", "melting point": "196 to 200"}, {"smiles": "Nc1sc(-c2ccc(Cl)cc2)c(CN(C2CCCCC2)C2CCCCC2)c1C(=O)c1ccc(Cl)cc1", "note": "[Example 12, {2-Amino-5-(4-chlorophenyl)-4-[(dicyclohexylamino)methyl]thiophen-3-yl}(4-chlorophenyl)methanone]", "melting point": "200 to 204"}, {"smiles": "COC(=O)CN(C)Cc1c(-c2ccccc2)sc(N)c1C(=O)c1ccc(Cl)cc1", "note": "[Example 16-7]", "melting point": "156.5 to 160"}, {"smiles": "Nc1sc(-c2ccncc2)c(CN(C2CCCCC2)C2CCCCC2)c1C(=O)c1ccc(Cl)cc1", "note": "[Example 36, {2-amino-4-[(dicyclohexylamino)methyl]-5-(pyridin-4-yl)thiophen-3-yl}(4-chlorophenyl)methanone]", "melting point": "214 to 216"}, {"smiles": "COc1ccc(-c2sc(N)c(C(=O)c3ccc(Cl)cc3)c2CN(C2CCCCC2)C2CCCCC2)cc1", "note": "[Example 19, {2-Amino-4-[(dicyclohexylamino)methyl]-5-(4-methoxyphenyl)thiophen-3-yl}(4-chlorophenyl)methanone]", "melting point": "178 to 182"}, {"smiles": "Nc1sc(/C=C/CC2CCCCC2)c(CN(C2CCCCC2)C2CCCCC2)c1C(=O)c1ccc(Cl)cc1", "note": "[Example 37, (E)-{2-Amino-5-(3-cyclohexylprop-1-enyl)-4-[(dicyclohexylamino)methyl]thiophen-3-yl}(4-chlorophenyl)methanone]", "melting point": "147 to 150"}, {"smiles": "Nc1sc(-c2ccc(Cl)s2)c(CN(C2CCCCC2)C2CCCCC2)c1C(=O)c1ccc(Cl)cc1", "note": "[Example 32, {5-Amino-5′-chloro-3-[(dicyclohexylamino)methyl]-2,2′-bithiophen-4-yl}(4-chlorophenyl)methanone]", "melting point": "195 to 197"}, {"smiles": "Nc1sc(-c2ccco2)c(CN(C2CCCCC2)C2CCCCC2)c1C(=O)c1ccc(Cl)cc1", "note": "[Example 31, {2-Amino-4-[(dicyclohexylamino)methyl]-5-(furan-2-yl)thiophen-3-yl}(4-chlorophenyl)methanone]", "melting point": "158 to 160"}, {"smiles": "Nc1sc(-c2cccnc2)c(CN(C2CCCCC2)C2CCCCC2)c1C(=O)c1ccc(Cl)cc1", "note": "[Example 35, {2-amino-4-[(dicyclohexylamino)methyl]-5-(pyridin-3-yl)thiophen-3-yl}(4-chlorophenyl)methanone]", "melting point": "168 to 170"}, {"smiles": "Cc1ccc(-c2sc(N)c(C(=O)c3ccc(Cl)cc3)c2CN(C2CCCCC2)C2CCCCC2)cc1", "note": "[Example 18, {2-Amino-4-[(dicyclohexylamino)methyl]-5-(4-methylphenyl)thiophen-3-yl}(4-chlorophenyl)methanone]", "melting point": "191 to 194"}, {"smiles": "Nc1sc(-c2cccc(F)c2)c(CN(C2CCCCC2)C2CCCCC2)c1C(=O)c1ccc(Cl)cc1", "note": "[Example 14, {2-Amino-4-[(dicyclohexylamino)methyl]-5-(3-fluorophenyl)thiophen-3-yl}(4-chlorophenyl)methanone]", "melting point": "205 to 207"}, {"smiles": "Nc1sc(/C=C/Cc2ccc(Cl)cc2)c(CN(C2CCCCC2)C2CCCCC2)c1C(=O)c1ccc(Cl)cc1", "note": "[Example 38, (E)-{2-amino-5[3-(4-chlorophenyl)prop-1-enyl]-4-[(dicyclohexylamino)methyl]thiophen-3-yl}(4-chlorophenyl)methanone]", "melting point": "143 to 146"}, {"smiles": "Nc1sc(-c2cc(F)cc(F)c2)c(CN(C2CCCCC2)C2CCCCC2)c1C(=O)c1ccc(Cl)cc1", "note": "[Example 17, {2-Amino-4-[(dicyclohexylamino)methyl]-5-(3,5-difluorophenyl)thiophen-3-yl}(4-chlorophenyl)methanone]", "melting point": "163 to 166"}, {"smiles": "Nc1sc(-c2ccc(F)cc2)c(CN(C2CCCCC2)C2CCCCC2)c1C(=O)c1ccc(Cl)cc1", "note": "[Example 15, {2-Amino-4-[(dicyclohexylamino)methyl]-5-(4-fluorophenyl)thiophen-3-yl}(4-chlorophenyl)methanone]", "melting point": "222 to 224"}, {"smiles": "CC(C)(C)c1ccc(-c2sc(N)c(C(=O)c3ccc(Cl)cc3)c2CN(C2CCCCC2)C2CCCCC2)cc1", "note": "[Example 11, {2-Amino-5-(4-t-butylphenyl)-4-[(dicyclohexylamino)methyl]thiophen-3-yl}(4-chlorophenyl)methanone]", "melting point": "180 to 184"}, {"smiles": "COCCOc1ccc(-c2sc(N)c(C(=O)c3ccc(Cl)cc3)c2CN(C2CCCCC2)C2CCCCC2)cc1", "melting point": "162 to 164"}, {"smiles": "Nc1sc(-c2ccc(Cl)c(Cl)c2)c(CN(C2CCCCC2)C2CCCCC2)c1C(=O)c1ccc(Cl)cc1", "note": "[Example 16-14, {2-Amino-5-(3,4-dichlorophenyl)-4-[(dicyclohexylamino)methyl]thiophen-3-yl}(4-chlorophenyl)methanone]", "melting point": "222 to 225"}, {"smiles": "Cc1ccc(N(C)Cc2c(-c3ccccc3)sc(N)c2C(=O)c2ccc(Cl)cc2)cc1", "note": "[Example 16-13, {2-Amino-4-[((4-methylphenyl)(methyl)amino)methyl]-5-phenylthiophen-3-yl}(4-chlorophenyl)methanone]", "melting point": "173 to 176"}, {"smiles": "CC(C)Oc1ccc(-c2sc(N)c(C(=O)c3ccc(Cl)cc3)c2CN(C2CCCCC2)C2CCCCC2)cc1", "note": "[Example 16-15, {2-Amino-4-[(dicyclohexylamino)methyl]-5-(4-isopropoxyphenyl)thiophen-3-yl}(4-chlorophenyl)methanone]", "melting point": "175 to 177"}, {"smiles": "CCCN(Cc1c(-c2ccccc2)sc(N)c1C(=O)c1ccc(Cl)cc1)C1CCCCC1", "note": "[Example 16-5, {2-Amino-4-[(cyclohexyl(propyl)amino)methyl]-5-phenylthiophen-3-yl}(4-chlorophenyl)methanone]", "melting point": "162 to 165"}, {"smiles": "C=CCN(Cc1c(-c2ccccc2)sc(N)c1C(=O)c1ccc(Cl)cc1)C1CCCCC1", "note": "[Example 16-6]", "melting point": "151 to 157"}, {"smiles": "COCCN(CCOC)Cc1c(-c2ccccc2)sc(N)c1C(=O)c1ccc(Cl)cc1", "note": "[Example 16-8, {2-Amino-4-[(bis(2-methoxyethyl)amino)methyl]-5-phenylthiophen-3-yl}(4-chlorophenyl)methanone]", "melting point": "140 to 145"}, {"smiles": "Nc1sc(-c2ccoc2)c(CN(C2CCCCC2)C2CCCCC2)c1C(=O)c1ccc(Cl)cc1", "note": "[Example 29, {2-Amino-[(dicyclohexylamino)methyl]-5-(furan-3-yl)thiophen-3-yl}(4-chlorophenyl)methanone]", "melting point": "132 to 135"}, {"smiles": "COc1ccc(N(C)Cc2c(-c3ccccc3)sc(N)c2C(=O)c2ccc(Cl)cc2)cc1", "note": "[Example 16-12, {2-Amino-4-[((4-methoxyphenyl)(methyl)amino)methyl]-5-phenylthiophen-3-yl}(4-chlorophenyl)methanone]", "melting point": "131.5 to 136"}, {"smiles": "Nc1sc(-c2ccccc2F)c(CN(C2CCCCC2)C2CCCCC2)c1C(=O)c1ccc(Cl)cc1", "note": "[Example 13, {2-Amino-4-[(dicyclohexylamino)methyl]-5-(2-fluorophenyl)thiophen-3-yl}(4-chlorophenyl)methanone]", "melting point": "223 to 225"}, {"smiles": "Nc1sc(-c2ccccn2)c(CN(C2CCCCC2)C2CCCCC2)c1C(=O)c1ccc(Cl)cc1", "note": "[Example 34, {2-am ino-4-[(dicyclohexylamino)methyl]-5-(pyridin-2-yl)thiophen-3-yl}(4-chlorophenyl)methanone]", "melting point": "192 to 194"}, {"smiles": "CC(C)CN(Cc1c(-c2ccccc2)sc(N)c1C(=O)c1ccc(Cl)cc1)CC(C)C", "note": "[Example 16-2, {2-Amino-4-[(diisobutylamino)methyl]-5-phenylthiophen-3-yl}(4-chlorophenyl)methanone]", "melting point": "127 to 133"}, {"smiles": "Nc1sc(-c2ccccc2)c(CNC23CC4CC(CC(C4)C2)C3)c1C(=O)c1ccc(Cl)cc1", "note": "[Example 16-10, {2-Amino-4-[(1-adamantylamino)methyl]-5-phenylthiophen-3-yl}(4-chlorophenyl)methanone]", "melting point": "135 to 140"}]}]}
